Data as given in US6979686B1, “Substituted pyrazoles as p38 kinase inhibitors” (Pharmacia Corporation, priority 2001, dated 2005).
Like-named read-outs stand apart in the source and are kept apart here.

Target: T1, human p38 kinase alpha (Homo sapiens, UniProt Q16539)
T1 construct: GST (N, cleaved yes); made in house; host or cells: E. coli DH10B
Test: p38 kinase in vitro assay, phosphorylation of biotinylated PHAS-I with 32P-ATP
Assay type: biochemical
Details: for IC50: read-out: P38 alpha kinase IC50; for inhibition at 1 µM: read-out: P38 alpha kinase % inhib @ conc.

[1] = in vitro P38-alpha kinase inhibition

T1 sequence (Q16539 whole entry): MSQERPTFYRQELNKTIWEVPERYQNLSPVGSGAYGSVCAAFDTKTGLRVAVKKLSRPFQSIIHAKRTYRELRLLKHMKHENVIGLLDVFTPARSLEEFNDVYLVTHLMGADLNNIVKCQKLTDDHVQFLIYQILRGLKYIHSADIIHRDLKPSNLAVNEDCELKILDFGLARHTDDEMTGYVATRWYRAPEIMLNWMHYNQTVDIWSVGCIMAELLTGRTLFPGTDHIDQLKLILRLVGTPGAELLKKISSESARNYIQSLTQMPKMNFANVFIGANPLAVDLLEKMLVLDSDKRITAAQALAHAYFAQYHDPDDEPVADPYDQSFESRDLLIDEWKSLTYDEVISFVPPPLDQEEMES

Row | Compound | IC50 [1] | IC50 (in vitro P38-alpha kinase) | further results
1 | Cc1ccc(F)cc1S(=O)(=O)NCCCc1[nH]nc(-c2ccc(F)cc2)c1-c1ccncc1 [Example B-1256] | – | 120 nM | –
2 | Cc1c(-c2ccncc2)c(-c2ccc(F)cc2)nn1CC(=O)NCCCOC(C)C [Example B-2313] | – | 42300 nM | –
3 | CCOC(=O)N1CCC(c2[nH]nc(-c3ccc(F)cc3)c2-c2ccncc2)CC1 [Example B-1422] | – | 580 nM | –
4 | Cc1c(-c2ccncc2)c(-c2ccc(F)cc2)nn1CC(=O)Nc1ccc(-n2ccc(C(F)(F)F)n2)cc1 [Example B-2455] | – | – | P38 alpha kinase IC50, uM or % inhib @ conc. (uM): % inhib (@ 10.0 uM): 87.0% @
5 | Cc1c(-c2ccncc2)c(-c2ccc(F)cc2)nn1CC(=O)NC(C)c1cccc2ccccc12 (stereo not shown) [Example B-2331] | – | – | P38 alpha kinase % inhib @ conc. (@ 10.0 uM): 74.0% @
6 | Cc1c(-c2ccncc2)c(-c2ccc(F)cc2)nn1CC(=O)NCCCCN1CCCC1 [Example B-2288] | – | 6510 nM | –
7 | O=C(O)c1ccccc1S(=O)(=O)NCCc1[nH]nc(-c2ccc(F)cc2)c1-c1ccncc1 [Example B-1065] | 560 nM | – | –
8 | O=C(NC(Cc1ccccc1)c1[nH]nc(-c2ccc(F)cc2)c1-c1ccncc1)N1CCOCC1 (stereo not shown) [Example B-0772] | 800 nM | – | –
9 | CCCCCc1ccc(C(=O)NCc2[nH]nc(-c3ccc(F)cc3)c2-c2ccncc2)cc1 [Example B-0012] | – | – | inhibition at 1 µM (@ 1.0 uM): 30%
10 | O=C(NCCCc1[nH]nc(-c2ccc(F)cc2)c1-c1ccncc1)NCCc1ccccc1 [Example B-1221] | – | – | P38 alpha kinase % inhib @ conc. (@ 1.0 uM): 82.0% @
11 | O=C(NCc1[nH]nc(-c2ccc(F)cc2)c1-c1ccncc1)c1ccc(-c2ccccc2)cc1 [Example B-0008] | – | – | inhibition at 1 µM (@ 1.0 uM): 42%
12 | O=C(NCCc1[nH]nc(-c2ccc(F)cc2)c1-c1ccncc1)c1ccncc1 [Example B-1006] | – | – | P38 alpha kinase % inhib @ conc. (uM) (@ 1.0 uM): 69.0% @
13 | O=S(=O)(NCCCc1[nH]nc(-c2ccc(F)cc2)c1-c1ccncc1)c1ccc2ccccc2c1 [Example B-1245] | – | 490 nM | –
14 | O=S(=O)(NCCCc1[nH]nc(-c2ccc(F)cc2)c1-c1ccncc1)c1cccc2ccccc12 [Example B-1246] | – | 270 nM | –
15 | O=C(NCCc1[nH]nc(-c2ccc(F)cc2)c1-c1ccncc1)c1ccccn1 [Example B-1007] | – | – | P38 alpha kinase % inhib @ conc. (uM) (@ 1.0 uM): 52.0% @
16 | O=S(=O)(c1ccccc1Br)N1CCC(c2[nH]nc(-c3ccc(F)cc3)c2-c2ccncc2)CC1 [Example B-1458] | – | 950 nM | –
17 | N#Cc1ccccc1S(=O)(=O)N1CCC(c2[nH]nc(-c3ccc(F)cc3)c2-c2ccncc2)CC1 [Example B-1461] | – | 400 nM | –
18 | COc1ccc(Cl)cc1S(=O)(=O)N1CCC(c2[nH]nc(-c3ccc(F)cc3)c2-c2ccncc2)CC1 [Example B-1445] | – | 430 nM | –
19 | O=C(NCCc1[nH]nc(-c2ccc(F)cc2)c1-c1ccncc1)c1cc(F)c(F)cc1F [Example B-1149] | 1550 nM | – | –
20 | CSc1ccccc1NC(=O)Cn1nc(-c2ccc(F)cc2)c(-c2ccncc2)c1C [Example B-2428] | – | – | P38 alpha kinase IC50, uM or % inhib @ conc. (uM): % inhib (@ 10.0 uM): 82.0% @
21 | Cc1noc(C)c1C(=O)NCCCc1[nH]nc(-c2ccc(F)cc2)c1-c1ccncc1 [Example B-1358] | – | 160 nM | –
22 | O=C(NCCc1ccccc1)NC(Cc1ccccc1)c1[nH]nc(-c2ccc(F)cc2)c1-c1ccncc1 (stereo not shown) [Example B-0783] | 8000 nM | – | –
23 | O=S(=O)(NCCCc1[nH]nc(-c2ccc(F)cc2)c1-c1ccncc1)c1ccc(C(F)(F)F)cc1 [Example B-1264] | – | 320 nM | –
24 | O=C(NCCCc1[nH]nc(-c2ccc(F)cc2)c1-c1ccncc1)c1ccc(I)cc1 [Example B-1168] | – | – | P38 alpha kinase % inhib @ conc. (uM) (@ 1.0 uM): 66.0% @
25 | O=S(=O)(NCCCc1[nH]nc(-c2ccc(F)cc2)c1-c1ccncc1)c1cc(Cl)cc(Cl)c1O [Example B-1241] | – | 40 nM | –

Row | Compound | IC50 [1] | IC50 (in vitro P38-alpha kinase) | further results
26 | CNC(=O)NCCCc1[nH]nc(-c2ccc(F)cc2)c1-c1ccncc1 [Example B-1213] | – | – | P38 alpha kinase % inhib @ conc. (@ 1.0 uM): 84.0% @
27 | CC(C)COC(=O)NCCCc1[nH]nc(-c2ccc(F)cc2)c1-c1ccncc1 [Example B-1187] | – | – | P38 alpha kinase % inhib @ conc. (uM) (@ 1.0 uM): 76.0% @
28 | O=S(=O)(NCCCc1[nH]nc(-c2ccc(F)cc2)c1-c1ccncc1)c1cc(Cl)cc(Cl)c1 [Example B-1269] | – | 460 nM | –
29 | Cc1cccc(C)c1NC(=O)N1CCC(c2[nH]nc(-c3ccc(F)cc3)c2-c2ccncc2)CC1 [Example B-1380] | – | < 100 nM | –
30 | O=S(=O)(NCCCc1[nH]nc(-c2ccc(F)cc2)c1-c1ccncc1)c1ccc(F)cc1Cl [Example B-1254] | – | 160 nM | –
31 | O=S(=O)(C=Cc1ccccc1)NCCCc1[nH]nc(-c2ccc(F)cc2)c1-c1ccncc1 [Example B-1193] | – | – | P38 alpha kinase % inhib @ conc. (uM) (@ 1.0 uM): 69.0% @
32 | O=C(NCc1[nH]nc(-c2ccc(F)cc2)c1-c1ccncc1)c1ccccc1[N+](=O)[O-] [Example B-0024] | – | – | inhibition at 1 µM (@ 1.0 uM): 94%
33 | CC(C)(C)C(=O)NCCc1[nH]nc(-c2ccc(F)cc2)c1-c1ccncc1 [Example B-1052] | – | – | P38 alpha kinase % inhib @ conc. (uM) (@ 1.0 uM): 69.0% @
34 | O=C(c1ccccc1)N1CCC(c2[nH]nc(-c3ccc(F)cc3)c2-c2ccncc2)CC1 [Example B-1385] | – | < 100 nM | –
35 | Cc1ccc(S(=O)(=O)NCCNC(=O)Cn2nc(-c3ccc(F)cc3)c(-c3ccncc3)c2C)cc1 [Example B-2299] | – | 1970 nM | –
36 | O=C(c1c(F)cccc1C(F)(F)F)N1CCC(c2[nH]nc(-c3ccc(F)cc3)c2-c2ccncc2)CC1 [Example B-1404] | – | 600 nM | –
37 | COCCN(CC1CCCCC1)C(=O)Cn1nc(-c2ccc(F)cc2)c(-c2ccncc2)c1C [Example B-2392] | – | – | P38 alpha kinase IC50, uM or % inhib @ conc. (uM): % inhib (@ 10.0 uM): 63.0% @
38 | CC(C)S(=O)(=O)NCCCc1[nH]nc(-c2ccc(F)cc2)c1-c1ccncc1 [Example B-1192] | – | – | P38 alpha kinase % inhib @ conc. (uM) (@ 1.0 uM): 84.0% @
39 | O=C(NCc1ccccc1)NC(Cc1ccccc1)c1[nH]nc(-c2ccc(F)cc2)c1-c1ccncc1 (stereo not shown) [Example B-0770] | 2300 nM | – | –
40 | O=S(=O)(c1cccs1)N1CCC(c2[nH]nc(-c3ccc(F)cc3)c2-c2ccncc2)CC1 [Example B-1437] | – | 300 nM | –
41 | O=S(=O)(NCCCc1[nH]nc(-c2ccc(F)cc2)c1-c1ccncc1)c1cc(Cl)c(Cl)s1 [Example B-1257] | – | 1480 nM | –
42 | CCOC(=O)CN(Cc1ccccn1)C(=O)Cn1nc(-c2ccc(F)cc2)c(-c2ccncc2)c1C [Example B-2390] | – | – | P38 alpha kinase IC50, uM or % inhib @ conc. (uM): % inhib (@ 10.0 uM): 34.0% @
43 | CCOC(=O)c1cc(-c2ccc(NC(=O)Cn3nc(-c4ccc(F)cc4)c(-c4ccncc4)c3C)cc2)oc1C [Example B-2450] | – | – | P38 alpha kinase IC50, uM or % inhib @ conc. (uM): % inhib (@ 10.0 uM): 87.0% @
44 | CCCCNS(=O)(=O)c1cccc(NC(=O)Cn2nc(-c3ccc(F)cc3)c(-c3ccncc3)c2C)c1 [Example B-2440] | – | – | P38 alpha kinase IC50, uM or % inhib @ conc. (uM): % inhib (@ 10.0 uM): 77.0% @
45 | COc1ccc(S(=O)(=O)NCCCc2[nH]nc(-c3ccc(F)cc3)c2-c2ccncc2)cc1 [Example B-1202] | – | – | P38 alpha kinase % inhib @ conc. (@ 1.0 uM): 71.0% @
46 | Cc1c(-c2ccncc2)c(-c2ccc(F)cc2)nn1CC(=O)NCCCN1CCCC1 [Example B-2307] | – | 2290 nM | –
47 | O=C(c1cccc(Cl)c1Cl)N1CCC(c2[nH]nc(-c3ccc(F)cc3)c2-c2ccncc2)CC1 [Example B-1416] | – | 140 nM | –
48 | Cc1c(-c2ccncc2)c(-c2ccc(F)cc2)nn1CC(=O)Nc1ccc(CSc2ccc(Cl)cc2)cc1 [Example B-2461] | – | – | P38 alpha kinase IC50, uM or % inhib @ conc. (uM): % inhib (@ 10.0 uM): 67.0% @
49 | CCCS(=O)(=O)NCCc1[nH]nc(-c2ccc(F)cc2)c1-c1ccncc1 [Example B-1021] | – | – | P38 alpha kinase % inhib @ conc. (uM) (@ 1.0 uM): 82.0% @

Now from value to compound, other results behind:

Row | IC50 [1] | IC50 (in vitro P38-alpha kinase) | Compound | further results
50 | 240 nM | – | CC(NC(=O)c1c(F)cccc1F)c1[nH]nc(-c2ccc(F)cc2)c1-c1ccncc1 (stereo not shown) [Example B-0700] | –
51 | 550 nM | – | CC(C)S(=O)(=O)NC(Cc1ccccc1)c1[nH]nc(-c2ccc(F)cc2)c1-c1ccncc1 (stereo not shown) [Example B-0754] | –
52 | 1740 nM | – | CC(C)COC(=O)NC(Cc1ccccc1)c1[nH]nc(-c2ccc(F)cc2)c1-c1ccncc1 (stereo not shown) [Example B-0826] | –
53 | 2120 nM | – | CCNC(=O)NC(C)c1[nH]nc(-c2ccc(F)cc2)c1-c1ccncc1 (stereo not shown) [Example B-0598] | –
54 | < 100 nM | – | CC(NS(=O)(=O)c1ccc(Br)cc1)c1[nH]nc(-c2ccc(F)cc2)c1-c1ccncc1 (stereo not shown) [Example B-0609] | –
55 | 270 nM | – | Cc1ccc(S(C)(=O)=O)cc1S(=O)(=O)NC(C)c1[nH]nc(-c2ccc(F)cc2)c1-c1ccncc1 (stereo not shown) [Example B-0668] | –
56 | 1680 nM | – | O=C(NCCc1[nH]nc(-c2ccc(F)cc2)c1-c1ccncc1)c1ccc(F)c(C(F)(F)F)c1 [Example B-1140] | –
57 | 15400 nM | – | CC(NC(=O)c1ccc(C(F)(F)F)cc1F)c1[nH]nc(-c2ccc(F)cc2)c1-c1ccncc1 (stereo not shown) [Example B-0685] | –
58 | 2070 nM | – | CC(NC(=O)c1cnc2ccccc2n1)c1[nH]nc(-c2ccc(F)cc2)c1-c1ccncc1 (stereo not shown) [Example B-0561] | –
59 | 150 nM | – | CC(NS(=O)(=O)c1ccccc1C(F)(F)F)c1[nH]nc(-c2ccc(F)cc2)c1-c1ccncc1 (stereo not shown) [Example B-0635] | –
60 | 95 nM | – | O=C(NCCc1[nH]nc(-c2ccc(F)cc2)c1-c1ccncc1)c1c(Cl)cccc1Cl [Example B-1147] | –
61 | 23 nM | – | CC(NS(=O)(=O)c1ccc(Cl)cc1Cl)c1[nH]nc(-c2ccc(F)cc2)c1-c1ccncc1 (stereo not shown) [Example B-0625] | –
62 | 23 nM | – | Cc1ccc(F)cc1S(=O)(=O)NC(C)c1[nH]nc(-c2ccc(F)cc2)c1-c1ccncc1 (stereo not shown) [Example B-0628] | –
63 | – | 70 nM | O=C(NCCCc1[nH]nc(-c2ccc(F)cc2)c1-c1ccncc1)c1ccccc1Br [Example B-1355] | –
64 | 440 nM | – | Cc1noc(C)c1C(=O)NC(C)c1[nH]nc(-c2ccc(F)cc2)c1-c1ccncc1 (stereo not shown) [Example B-0706] | –
65 | 48000 nM | – | CC(NC(=O)NC(Cc1ccccc1)c1[nH]nc(-c2ccc(F)cc2)c1-c1ccncc1)c1ccccc1 (stereo not shown) [Example B-0781] | –
66 | 1250 nM | – | CC(=O)OC(C)(C)C(=O)NC(Cc1ccccc1)c1[nH]nc(-c2ccc(F)cc2)c1-c1ccncc1 (stereo not shown) [Example B-0834] | –
67 | 3150 nM | – | CC(NC(=O)c1ccc(Cl)cc1)c1[nH]nc(-c2ccc(F)cc2)c1-c1ccncc1 (stereo not shown) [Example B-0670] | –
68 | < 100 nM | – | CC(NS(=O)(=O)c1ccc(-c2ccon2)s1)c1[nH]nc(-c2ccc(F)cc2)c1-c1ccncc1 (stereo not shown) [Example B-0662] | –
69 | 170 nM | – | CC(C)OC(=O)NC(C)c1[nH]nc(-c2ccc(F)cc2)c1-c1ccncc1 (stereo not shown) [Example B-0606] | –
70 | 540 nM | – | CC(NC(=O)c1c(F)cc(F)cc1F)c1[nH]nc(-c2ccc(F)cc2)c1-c1ccncc1 (stereo not shown) [Example B-0684] | –
